Laboratory results published in patent US20240261249A1, “NOVEL SQUARAMIDE DERIVATIVE AND USE THEREOF” (PUSAN NATIONAL UNIVERSITY INDUSTRY-UNIVERSITY COOPERATION …, priority 2021, published 2024).
Read-outs that look alike come from different tables or passages of the source.

Columns and labels:
Type in all cases: cell-based
Phospho-eIF2α (Ser51) = Phospho-eIF2α (Ser51) Sandwich ELISA in K562 cells; conditions: Homo sapiens, K562, 6 h, serum-free RPMI, 10 μM compound, control = 1, read-out: eIF2α phosphorylation, absorbance standardized to control (DMSO-treated) set to 1, at 10 μM
Method in brief: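 K562 cells in serum-free RPMI (37 °C, 5% CO2) were exposed to compounds at 10 μM for 6 h, then lysed, and 50 μg protein was run in the sandwich ELISA. Absorbance was normalised to the DMSO control set to 1.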

K562 cell line = experiment: CCK-8 anti-proliferative assay, K562; conditions: Homo sapiens, 72 h, K562, culture for 3 days
Procedure: CCK-8 assay (cell counting kit-8 assay, Dojindo, Kumamoto, Japan) was performed. The K562 cell line was cultured in RPMI medium supplemented with 10% FBS and 1% ABAM at 37° C. in the presence of 5% CO2. Cells were treated with test compounds at concentrations of 0 μM, 1.25 μM, 2.5 μM, 5 μM, 10 μM, and 20 μM, respectively. After culture for 3 days, 10 μL of CCK-8 solution was treated and cultured for 4 hours. Subsequently, the absorbance was measured at 450 nm to obtain the IC50 value of each compound.
The experimental values for the K562 cell line are identical to biological Example 2.

[1] = tested on: PBMC (peripheral blood monocyte cells isolated from normal donors); experiment: CCK-8 assay, PBMC (normal cells)
Procedure: PBMC (peripheral blood monocyte cells isolated from normal donors) cell lines were dispensed in RPMI medium supplemented with 10% FBS and 1% ABAM at 37° C. in the presence of 5% CO2, and then the test compounds were treated at concentrations of 0 μM, 1.25 μM, 2.5 μM, 5 μM, 10 μM, and 20 μM, respectively. After culture for 3 days, 10 μL of CCK-8 solution was treated and cultured for 4 hours. Subsequently, the absorbance at 450 nm was measured to obtain the IC50 value of each compound.

IC50 (K562 cell line; CCK-8, Table 2, read-out: IC50): 5.69 µM
IC50 (K562 cell line; CCK-8, Table 3 (identical to Example 2), tested 0-20 μM, read-out: IC50 K562): 5.69 µM
Structure (SMILES): CC(C)(C)c1cccc(Nc2c(N[C@H]3CC[C@H](Oc4ccc(S(C)(=O)=O)cc4)CC3)c(=O)c2=O)c1 [Compound 31, 3-((3-(tert-Butyl)phenyl)amino)-4-(((1,4-trans)-4-(4-(methylsulfonyl)phenoxy)cyclohexyl)amino)cyclobut-3-ene-1,2-dione]
activity at 10 µM (Phospho-eIF2α (Ser51)): 150%
IC50 ([1]; 72 h, PBMC normal cells, culture for 3 days, CCK-8, tested 0-20 μM): 35.1 µM
SI (selectivity index) ([1]; K562 cells compared to PBMC): 6.10
